Reference: article PMC5121526, “Chemerin Elicits Potent Constrictor Actions via Chemokine‐Like Receptor 1 (CMKLR1), not G‐Protein‐Coupled Receptor 1 (GPR1), in Human and Rat Vasculature” (Journal of the American Heart Association: Cardiovascular …, 2016)
Ends that are not written are not given here.

Assays:
Assay type in all cases: cell-based
human CMKLR1 [1] = biological target: T1, human CMKLR1 (Homo sapiens, UniProt Q99788); experiment: cAMP inhibition at CMKLR1; details: inhibition of forskolin‐evoked cAMP accumulation, CHO‐K1 cells, n: Chemerin 3, C9 4, C13 3, mean±SEM
T1 construct: host or cells: CHO-K1
T1 sequence (Q99788 1-373): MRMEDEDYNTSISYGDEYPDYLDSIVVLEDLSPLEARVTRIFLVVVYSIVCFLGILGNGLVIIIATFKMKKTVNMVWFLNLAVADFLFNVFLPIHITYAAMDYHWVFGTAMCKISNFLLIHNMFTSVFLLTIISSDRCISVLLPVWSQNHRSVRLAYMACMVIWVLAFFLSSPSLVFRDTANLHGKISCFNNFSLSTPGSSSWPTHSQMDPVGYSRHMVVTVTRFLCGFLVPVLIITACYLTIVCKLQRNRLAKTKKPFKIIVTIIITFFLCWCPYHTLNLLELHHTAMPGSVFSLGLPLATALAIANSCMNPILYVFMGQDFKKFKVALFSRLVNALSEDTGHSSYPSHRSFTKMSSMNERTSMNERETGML
Description: (§1) β‐Arrestin recruitment (CMKLR1 and GPR1) and cAMP assays (CMKLR1; DiscoverX, Fremont, CA) were carried out with CHO‐K1 cells expressing either human CMKLR1 or GPR1, according to the manufacturer's instructions. […] Data were subsequently normalized to the maximum response to C13 used as the reference agonists in each assay.

human CMKLR1 [2] = biological target: T1, human CMKLR1; experiment: β‐Arrestin recruitment at CMKLR1
Description: as §1

human GPR1 = biological target: T2, human GPR1 (Homo sapiens, UniProt P46091); experiment: β‐Arrestin recruitment at GPR1
T2 construct: host or cells: CHO-K1
T2 sequence (P46091 1-355): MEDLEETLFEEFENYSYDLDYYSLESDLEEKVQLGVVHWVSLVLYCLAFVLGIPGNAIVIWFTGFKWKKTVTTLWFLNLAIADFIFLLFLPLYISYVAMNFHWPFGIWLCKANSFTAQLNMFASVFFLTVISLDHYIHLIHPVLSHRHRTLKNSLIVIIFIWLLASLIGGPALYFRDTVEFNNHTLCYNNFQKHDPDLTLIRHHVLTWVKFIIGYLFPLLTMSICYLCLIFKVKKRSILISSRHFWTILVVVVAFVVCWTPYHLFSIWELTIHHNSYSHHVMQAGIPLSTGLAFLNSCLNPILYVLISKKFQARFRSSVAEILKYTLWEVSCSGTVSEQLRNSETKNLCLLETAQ
Description: as §1

| pD2 (human CMKLR1 [1]) | pD2 (human CMKLR1 [2]; β‐arrestin recruitment, CHO‐K1 cells, CMKLR1, n: Chemerin 3, C9 3, C13 6, mean±SEM) | pD2 (human GPR1; β‐arrestin recruitment, CHO‐K1 cells, GPR1, n: Chemerin 3, C9 7, C13 9, mean±SEM) | Substance | EC50 (human CMKLR1 [1]; read-out: pD2 (converted)) [nM] | EC50 (human CMKLR1 [2]) [nM] | Emax (human CMKLR1 [2]) [%] | EC50 (human GPR1) [nM] | Emax (human GPR1) [%] |
| --- | --- | --- | --- | --- | --- | --- | --- | --- |
|  |  |  | PHSFYFPGQFAFS [C13] | 0.759 | 70.8 | 94 ± 2 | 2.24 | 97 ± 3 |
| 8.45±0.10 | 9.37±0.05 | 9.05±0.09 | Chemerin: Human recombinant chemerin(21–157) purchased from R&D Systems |  |  |  |  |  |
